This assay has as its system Plasmodium falciparum. Description: GSK_TCMDC: Inhibition of Plasmodium falciparum 3D7 in whole erythrocytes, using parasite LDH activity as an index of growth. Format: functional, organism-based. The settings on record: Plasmodium falciparum, 3D7.
In the case of `O=C(N[C@H](CC1CCCCC1)C(=O)NC1CCCc2ccccc21)c1ccc(O)c(-c2cccc([N+](=O)[O-])c2)c1` (some centres not stated), the XC50 came to 610 nM. In the case of `OC(CNCc1ccccc1OCc1ccccc1)c1cc(Br)cs1` (configuration not stated), the XC50 is 722 nM. The value for `CCN(CC)CCN(Cc1ccc(-c2ccc(C(F)(F)F)cc2)nc1)C(=O)Cn1c(SCc2ccc(F)cc2)nc(=O)c2sccc21` was 840 nM; that for `O=C(NC1c2ccccc2Oc2ccccc21)c1ccccc1O` was 844 nM. The value for `Cn1cc(C2CCN(CCCCCNC(=O)/C=C/c3ccc(Cl)c(Cl)c3)CC2)c2cc(O)ccc21` was 943 nM; that for `Cc1ccnc(NC(c2cccc(Cl)c2Cl)c2ccc3cccnc3c2O)c1` (configuration not stated) was 1000 nM.

Take `O=C(NCCc1cccc(Cl)c1Cl)c1ccc(N2CCN(c3ccncc3)CC2)nc1`: the XC50 came out at 1060 nM. The value for `CC(C)(C)OC(=O)NCCc1cccc(-c2c[nH]c3ncc(-c4cccc(NS(C)(=O)=O)c4)cc23)c1` was 684 nM; that for `COc1cccc(NC(=O)Nc2c(-c3cccc(C(F)(F)F)c3)c(C(F)(F)F)nn2C)c1` was 911 nM.

Consider `CC(C)N1CCC(Oc2ccc(CN3CCN(C(c4ccccc4)c4ccc(Cl)cc4)CC3)cc2)CC1` (configuration not stated), for which the XC50 was found to be 937 nM. The value for `OC(CNCc1ccccc1OCc1ccccc1)c1cccc(Br)c1` (configuration not stated) was 643 nM; that for `COc1ccc2nccc([C@@H](O)CN3CCC(NCc4cc5cccc(OCc6ccccc6)c5[nH]4)CC3)c2c1` was 899 nM. For the compound `COc1cccc(CCNCCCCCCNCCc2ccc(Cl)cc2)c1`, the XC50 was 1010 nM. The value for `O=C(Nc1cccc(CN2CCCN(Cc3ccsc3)CC2)c1)c1ccc(-c2ccccc2)cc1` was 1340 nM; that for `CN1CCC(NCc2cccc(-c3nn(C)c4nc(NC5CCCC5)ncc34)c2)CC1` was 1020 nM; that for `CC(C)(C)c1ccc(C(=O)Nc2cccc(Nc3c(C(=O)NCc4cccc(C(F)(F)F)c4)cnc4c(O)cccc34)c2)cc1` was 1090 nM.

`COc1cc(N)c(Cl)cc1C(=O)NC1CCC(NCC2CCCCC2)CC1` (configuration not stated) yielded an XC50 of 426 nM.

Turning to `CCOc1ccc(NC(=O)c2ccc(CN3CCCN(Cc4cccc(O)c4)CC3)cc2)cc1`, the XC50 was determined as 1310 nM. In the case of `O=C(Nc1cc(F)cc(-c2cccnc2)c1)c1ccc2c(=O)n(Cc3ccccc3)cnc2c1` it was 1330 nM; in that of `Cn1cc(Br)c(-c2cccc(Nc3ccnc4cc(-c5nccs5)ccc34)c2)n1`, 979 nM. In the case of `CCOC(=O)c1c[nH]c2c(ccc3ccccc32)c1=O` it was 157 nM; in that of `CNCc1cccc(-c2ccc3ccnc(N)c3c2)c1`, 93.1 nM. The compound `NS(=O)(=O)c1ccc(CNc2ccc3ncc(-c4ccc(Cl)cc4)n3n2)cc1` showed an XC50 of 284 nM. The value for `O=C(Nc1ccc(Cl)cc1)Nc1ccc(-c2ccc(-c3nc4ccccc4[nH]3)cc2)cc1` was 50.7 nM; that for `COc1cc(C(=O)Nc2cccc(-c3cn4cccc(C)c4n3)c2)cc(OC)c1OC` was 697 nM; that for `O=c1cc(NCCCNCc2cc3c(Cl)cc(Cl)cc3[nH]2)[nH]c2ccccc12` was 862 nM. Regarding `COc1cc2ccccc2cc1CNCCCCCCNCc1cc2ccccc2cc1OC`, the XC50 amounted to 720 nM. The value for `O=C(NCC1CCN(CCN2CCC(c3cn(CCO)c4ccccc34)CC2)CC1)c1ccc(-c2ccc(C(F)(F)F)cc2)cc1` was 438 nM; that for `Cc1ccc(C2(C)CN(CCCOc3cccc(-c4ccc(C(=O)NC(C)C)cc4)c3)CCO2)cc1` (configuration not stated) was 960 nM; that for `CCOc1ccc(-c2nonc2NC(=O)c2ccccc2OC)cc1OCC` was 241 nM. Compound `CC(C)Cc1csc(NC(=O)C=Cc2ccco2)c1C(=O)O` had an XC50 of 305 nM. `COc1ccc2c(c1)Sc1ccccc1C(N1CCN(CCO)CC1)C2` (configuration not stated) came in with an XC50 of 1390 nM. The value for `CCCN(c1ccc(O)c(CN2CCCCC2)c1)c1ccc([N+](=O)[O-])cn1` was 805 nM; that for `COc1ccc(C#Cc2ccc(-c3c(C)[nH]c(C)c(Cl)c3=O)cc2)cc1` was 66.5 nM. Regarding `O=C(Nc1cccc(C(F)(F)F)c1)c1cc([N+](=O)[O-])cc2cn[nH]c12`, the XC50 is 995 nM. Regarding `Nc1cccc(CNCc2cccc(-c3csc(-c4nc5ccccc5[nH]4)c3)c2)c1`, the XC50 was 685 nM. The value for `Cc1cccc(CNc2nc(C)cc(N[C@@H](Cc3ccccc3)C(=O)NCCOc3ccccc3)n2)c1` was 914 nM; that for `COc1ccc(-c2cccc(NC(=O)c3cccc(C#N)c3)c2)cc1CNC(C)C` was 694 nM. For `O=S(=O)(/C=C/c1ccccc1)N(Cc1ccc(-c2ccc(CNCCc3ccccn3)cc2)cc1)CC1CCCCN1` (configuration not stated), the XC50 turned out to be 742 nM. In the case of `COc1ccccc1CCCN1C(=O)C(c2ccccc2)(c2ccccc2)N=C1N` it was 265 nM; in that of `CS(=O)(=O)CCNCc1cccc(-c2cc3c(Nc4ccc5c(cnn5Cc5ccccc5)c4)ncnc3s2)c1`, 553 nM.

The compound `CN1CCN(c2cc3c(cc2Cl)CCN3C(=O)Cc2ccc(Cl)c(NC(=O)Nc3cccc([N+](=O)[O-])c3)c2)CC1` had an XC50 of 718 nM. The value for `O=C(Nc1cccc(CN2CCN(Cc3ccc(O)cc3)CC2)c1)c1cc2ccccc2s1` was 682 nM; that for `COc1ccc(F)cc1-c1ccccc1CNC(=O)c1cnn(-c2ccc([N+](=O)[O-])cc2)c1C(F)(F)F` was 596 nM. The value for `C=CCn1c(=N)c(C(=O)NC2CCCCC2)cc2c(=O)n3cccc(C)c3nc21` was 1040 nM; that for `Fc1ccc(-c2nc(NCc3cccc(C(F)(F)F)c3)nn2-c2cccc(C(F)(F)F)c2)cc1C(F)(F)F` was 1050 nM; that for `CCN(CCCN1CCCCC1)c1cc(C)nc(Nc2cccc(C(F)(F)F)c2)n1` was 289 nM.

The compound `Nc1c(Cl)cc(C(O)CNCCCCCCOCCc2ccc(O)cc2)cc1Cl` (configuration not stated) returned an XC50 of 725 nM. Regarding `Cc1cc(NC(=O)c2cccs2)ccc1OC1CCN(Cc2ccccc2)CC1`, the XC50 came to 874 nM. Consider `OCC1CCN(Cc2ccc(-c3cccc(-c4nc5cc(F)ccc5[nH]4)c3)cc2)CC1`, for which the XC50 came out at 910 nM. The compound `CC(C)CN(c1nc(C(=O)NNC(=O)[C@H](CC2CC2)NC(=O)c2cc3cc(OCCN4CCCCC4)ccc3o2)cs1)C1CC1` showed an XC50 of 213 nM.

In turn, `Cc1cc2nc(-c3ccc(SCC(=O)Nc4ccc5c(c4)OCCO5)nc3)[nH]c2cc1C` registered an XC50 of 989 nM. In the case of `c1ccc(CNCc2ccc(-c3cccc(-c4nc5ccccc5[nH]4)c3)cc2)cc1` it was 422 nM; in that of `NC1CCN(CCc2ccc(NS(=O)(=O)c3ccc(-c4ccccc4)cc3)cc2)CC1`, 1020 nM; in that of `COc1ccc(Nc2nccc(N3CCC(NC(=O)Nc4cc(C)ccc4C)C3)n2)cc1` (configuration not stated), 901 nM. In the case of `CCCCCCN1CCC(CNCc2cccc(Cl)c2)CC1` it was 1220 nM; in that of `CN1CCN(CCCCCCNc2c3ccccc3nc3ccccc23)CC1`, 722 nM. In the case of `N#Cc1ccc(-c2ccc(C(=O)NC3CCN(CCN4CCC(c5cn(CCOC6CCCCO6)c6ccccc56)CC4)CC3)cc2)cc1` (configuration not stated) it was 599 nM; in that of `CC(C)CNCc1ccc(-c2cccc(CN(CCN(C)C)C(=O)NCCc3ccccc3)c2)cc1`, 1060 nM. Regarding `OCCN1CCN(Cc2cccc(-c3ccc(-c4nc5cc(C(F)(F)F)ccc5[nH]4)s3)c2)CC1`, the XC50 was 86.7 nM. In the case of `O=C(CN1CCCC1)Nc1cccc(C(=O)Nc2cccc(C(F)(F)F)c2)c1` it was 510 nM; in that of `Fc1ccc2[nH]ccc(=NN=Cc3ccccc3Cl)c2c1`, 922 nM; in that of `Cn1c(N=C2NC3(c4ccccn4)NC(=Nc4nc5ccccc5n4C)NC3(c3ccccn3)N2)nc2ccccc21` (configuration not stated), 1040 nM. The value for `COc1ccc(CNC(=O)NC2CCN(c3ccnc(Nc4ccc(F)cc4)n3)CC2)cc1` was 1050 nM. The value for `COc1cccc(Cn2ccc3c4c(N)nc(N)nc4ccc32)c1` was 3.2 nM; that for `CN(C)c1ccc(C=C2SC(=N)N(c3nccs3)C2=O)cc1` was 461 nM. `Oc1ccc(CCCNc2nc(NCc3ccccc3-c3ccccc3)nc(NC3CCNCC3)n2)cc1` gave an XC50 of 864 nM. In turn, `COc1ccc2c(=NN=Cc3cccc(C)n3)cc(-c3ccccc3)[nH]c2c1` displayed an XC50 of 751 nM. For `O=C(N[C@@H](Cc1ccccc1)C(=O)NC1CCCCCC1)c1ccc(O)c(-c2ccc(Cl)c(Cl)c2)c1`, the XC50 turned out to be 329 nM. `COC(=O)c1ccc(CC(C)NCC(O)c2cccc(C(F)(F)F)c2)c(Cl)c1` (configuration not stated) yielded an XC50 of 854 nM.

Consider `Cn1cnc(CCNC(=O)c2ccc(-c3cccc(-c4nc5cc(F)ccc5[nH]4)c3)cc2)c1`, for which the XC50 was found to be 680 nM.

The compound `CN(C)CCCN1C(=O)c2[nH]nc(-c3ccc(Cl)cc3O)c2C1c1ccc(Cl)cc1` (configuration not stated) had an XC50 of 758 nM.

As for `NC(=O)NC(=O)C=Cc1ccco1`, the XC50 came to 150 nM. Take `Cc1n[nH]c2cc(Nc3ccnc(Nc4cccc(CN5CCOCC5)c4)n3)ccc12`: the XC50 was 1580 nM. `CCCc1cc(N2CCC(N(CC)CC)C2)nc(Nc2ccc(OC)cc2)n1` (configuration not stated) gave an XC50 of 168 nM. The value for `CCOc1ccc(-c2nonc2NC(=O)c2ccc(OC(C)C)cc2)cc1OCC` was 601 nM. In the case of `O=C(C=Cc1ccc(Cl)c(Cl)c1)NCCCCCN1CCC(CCNS(=O)(=O)c2ccc(Br)cc2)CC1` it was 1120 nM. Consider `COc1ccc2nccc(NC(=O)C3(O)CCC(NCc4ccc5c(c4)NCCS5)CC3)c2n1` (configuration not stated), for which the XC50 worked out at 598 nM. Take `CN(C)C1CCN(CC#Cc2cc3ncnc(Nc4ccc(OCc5cccc(F)c5)c(Cl)c4)c3s2)CC1`: the XC50 stood at 887 nM. Consider `Cc1cc(-c2c[nH]c3ncc(-c4cccc5ncccc45)cc23)ccc1C(=O)O`, for which the XC50 came to 761 nM. Regarding `O=C(Nc1ccc(CN2CCC(c3c[nH]c4ccc(O)cc34)CC2)cc1)c1ccc(-c2ccccc2)cc1`, the XC50 stood at 253 nM. The value for `CCN(CC)CCN1C(=O)C(O)(c2ccccc2Cl)c2c1cc(C#N)cc2C(F)(F)F` (configuration not stated) was 947 nM. In the case of `NC1CCN(Cc2cccc(-c3cccc(-c4nc5ccccc5[nH]4)c3)c2)C1` (configuration not stated) it was 790 nM; in that of `Cc1cc(C)c2nc(N3CCC(C(=O)NCCCN4CCC(N5CCCCC5)CC4)CC3)sc2c1`, 838 nM. In the case of `Fc1cccc(Nc2nc(NCCc3ccc(Cl)cc3)nc(Nc3cccc(F)c3)n2)c1` it was 1070 nM; in that of `COc1coc(C(=O)NC2CCN(CC3(c4ccc(Cl)cc4)CCC3)CC2)c1OC`, 164 nM; in that of `CC(NC(=O)c1cc(-c2ccccc2)nc2c1cnn2C(C)C)C1CC1` (configuration not stated), 1280 nM.

Source of the values: ChEMBL document CHEMBL1157539, “Thousands of chemical starting points for antimalarial lead identification” (Nature, 2010).
